# Measurements reported in patent publication US20090291938A1 (TAKEDA PHARMACEUTICAL COMPANY LIMITED, priority 2007, published 2009).
# Tested on: HT29 human colorectal adenocarcinoma cell line
# Assay: cell proliferation assay (Cell Titer-Glo luminescent cell viability assay)
# Type: cell-based
# Settings: HT-29, 72 h, read-out: pIC50 (converted)
# Description: The cell culture and proliferation assay may be carried out as follows: the HT29 human colorectal adenocarcinoma cell line (ATCC, USA) was maintained in Dulbecco's Modified Eagle's Medium (Invitrogen, USA) supplemented with 10% fetal bovine serum (JRH, USA). The cell proliferation assay was carried out with the Cell Titer-Glo luminescent cell viability assay (Promega, USA) according to the manufacture's instruction after the 72 hr treatment of the cells in the presence of the compounds. The cell viability was shown as a percentage of DMSO treated cells.
row,Structure (SMILES),IC50 [nM]
1,"COc1cc(C(=O)NC2CCN(C)CC2)ccc1Nc1ncc2c(n1)N(C1CCCC1)CC1(CCC1)C(=O)N2C [Compound 179, 4-(9′-Cyclopentyl-5′-methyl-6′-oxo-5′,6′,8′,9′-tetrahydrospiro[cyclobutane-1,7′-pyrimido[4,5-b][1,4]diazepine]-2′-ylamino)-3-methoxy-N-(1-methylpiperidin-4-yl)benzamide]",< 1
2,CN1CCC(NC(=O)c2ccc(Nc3ncc4c(n3)N(C3CCCC3)CC(C)(C)C(=O)N4C)c(O)c2)CC1 [Compound 121],3.16 to 10

# Same assay, conditions: HT-29, cell proliferative assay, HT29 cells, 72 hr treatment, values given as ranges, read-out: pIC50 (converted)
row,Structure (SMILES),IC50 [nM]
1,"COc1cc(C(=O)NC[C@@H]2CCCN2)ccc1Nc1ncc2c(n1)N(C1CCCC1)CCC(=O)N2C [Compound 61, (S)-4-(9-cyclopentyl-5-methyl-6-oxo-6,7,8,9-tetrahydro-5H-pyrimido[4,5-b][1,4]diazepin-2-ylamino)-3-methoxy-N-(pyrrolidin-2-ylmethyl)benzamide]",> 10
2,"COc1cc(C(=O)N[C@@H]2CCN(C)C2)ccc1Nc1ncc2c(n1)N(C1CCCC1)CCC(=O)N2C [Compound 51, (R)-4-(9-cyclopentyl-5-methyl-6-oxo-6,7,8,9-tetrahydro-5H-pyrimido[4,5-b][1,4]diazepin-2-ylamino)-3-methoxy-N-(1-methylpyrrolidin-3-yl)benzamide]",> 10
3,"COc1cc(C(=O)NCCN(C)C)ccc1Nc1ncc2c(n1)N(C1CCCC1)CC(C)(C)C(=O)N2C [Compound 92, 4-(9-cyclopentyl-5,7,7-trimethyl-6-oxo-6,7,8,9-tetrahydro-5H-pyrimido[4,5-b][1,4]diazepin-2-ylamino)-N-(2-(dimethylamino)ethyl)-3-methoxybenzamide]",3.16 to 10
4,"C=CC[C@H]1CN(C2CCCC2)c2nc(Nc3ccc(C(=O)N[C@H]4CCCN(C)C4)cc3OC)ncc2N(C)C1=O [Compound 198, 4-((S)-7-allyl-9-cyclopentyl-5-methyl-6-oxo-6,7,8,9-tetrahydro-5H-pyrimido[4,5-b][1,4]diazepin-2-ylamino)-3-methoxy-N-((S)-1-methylpiperidin-3-yl)benzamide]",< 1
5,"CC#CC[C@@H]1CN(C2CCCC2)c2nc(Nc3ccc(C(=O)NC4CCN(C)CC4)cc3OC)ncc2N(C)C1=O [Compound 216, (R)-4-(7-(but-2-ynyl)-9-cyclopentyl-5-methyl-6-oxo-6,7,8,9-tetrahydro-5H-pyrimido[4,5-b][1,4]diazepin-2-ylamino)-3-methoxy-N-(1-methylpiperidin-4-yl)benzamide]",1 to 2.51
6,"C=CC[C@H]1CN(C2CCCC2)c2nc(Nc3ccc(C(=O)N[C@@H]4CCN(C)C4)cc3OC)ncc2N(C)C1=O [Compound 204, 4-((S)-7-allyl-9-cyclopentyl-5-methyl-6-oxo-6,7,8,9-tetrahydro-5H-pyrimido[4,5-b][1,4]diazepin-2-ylamino)-3-methoxy-N-((R)-1-methylpyrrolidin-3-yl)benzamide]",1 to 2.51
7,"C=CC[C@H]1CN(C2CCCC2)c2nc(Nc3ccc(C(=O)NC4CCNCC4)cc3OC)ncc2N(C)C1=O [Compound 207, (S)-4-(7-allyl-9-cyclopentyl-5-methyl-6-oxo-6,7,8,9-tetrahydro-5H-pyrimido[4,5-b][1,4]diazepin-2-ylamino)-3-methoxy-N-(piperidin-4-yl)benzamide]",3.16 to 10
8,"COc1cc(C(=O)NN2CCN(C3CCCC3)CC2)ccc1Nc1ncc2c(n1)N(C1CCCCC1)CC(C)(C)C(=O)N2C [Compound 117, 4-(9-cyclohexyl-5,7,7-trimethyl-6-oxo-6,7,8,9-tetrahydro-5H-pyrimido[4,5-b][1,4]diazepin-2-ylamino)-N-(4-cyclopentylpiperazin-1-yl)-3-methoxybenzamide]",3.16 to 10
9,"COc1cc(C(=O)NCCN2CCCC2=O)ccc1Nc1ncc2c(n1)N(C1CCCC1)CCC(=O)N2C [Compound 46, 4-(9-cyclopentyl-5-methyl-6-oxo-6,7,8,9-tetrahydro-5H-pyrimido[4,5-b][1,4]diazepin-2-ylamino)-3-methoxy-N-(2-(2-oxopyrrolidin-1-yl)ethyl)benzamide]",3.16 to 10
10,"COc1cc(C(=O)NCc2cccnc2)ccc1Nc1ncc2c(n1)N(C1CCCC1)CCC(=O)N2C [Compound 70, 4-(9-cyclopentyl-5-methyl-6-oxo-6,7,8,9-tetrahydro-5H-pyrimido[4,5-b][1,4]diazepin-2-ylamino)-3-methoxy-N-(pyridin-3-ylmethyl)benzamide]",3.16 to 10
11,"C=CC[C@H]1CN(C2CCCC2)c2nc(Nc3ccc(C(=O)N[C@H]4CC[C@H](O)CC4)cc3OC)ncc2N(C)C1=O [Compound 197, 4-((S)-7-allyl-9-cyclopentyl-5-methyl-6-oxo-6,7,8,9-tetrahydro-5H-pyrimido[4,5-b][1,4]diazepin-2-ylamino)-N-((1R,4R)-4-hydroxycyclohexyl)-3-methoxybenzamide]",< 1
12,"C/C=C/CC1CN(C2CCCC2)c2nc(Nc3ccc(C(=O)NC4CCN(C)CC4)cc3OC)ncc2N(C)C1=O (stereo not drawn) [Compound 220, (E)-4-(7-(but-2-enyl)-9-cyclopentyl-5-methyl-6-oxo-6,7,8,9-tetrahydro-5H-pyrimido[4,5-b][1,4]diazepin-2-ylamino)-3-methoxy-N-(1-methylpiperidin-4-yl)benzamide]",3.16 to 10

# The remaining lines, values ahead:
row,IC50 [nM],Structure (SMILES)
1,< 1,"COc1cc(C(=O)N[C@@H]2CCCNC2)ccc1Nc1ncc2c(n1)N(C1CCCCC1)CC1(CC1)C(=O)N2C [Compound 175, (R)-4-(9′-cyclohexyl-5′-methyl-6′-oxo-5′,6′,8′,9′-tetrahydrospiro [cyclopropane-1,7′-pyrimido[4,5-b][1,4]diazepine]-2′-ylamino)-3-methoxy-N-(piperidin-3-yl)benzamide]"
2,3.16 to 10,"CCC1(C)CN(C2CCCCC2)c2nc(Nc3ccc(C(=O)N[C@H]4CC[C@H](O)CC4)cc3OC)ncc2N(C)C1=O (stereo partly drawn) [Compound 141, 4-(9-cyclohexyl-7-ethyl-5,7-dimethyl-6-oxo-6,7,8,9-tetrahydro-5H-pyrimido[4,5-b][1,4]diazepin-2-ylamino)-N-((1R,4R)-4-hydroxycyclohexyl)-3-methoxybenzamide]"
3,1 to 2.51,"COc1cc(C(=O)N[C@H]2CCCNC2)ccc1Nc1ncc2c(n1)N(C1CCCCC1)CC(C)(C)C(=O)N2C [Compound 111, (S)-4-(9-cyclohexyl-5,7,7-trimethyl-6-oxo-6,7,8,9-tetrahydro-5H-pyrimido[4,5-b][1,4]diazepin-2-ylamino)-3-methoxy-N-(piperidin-3-yl)benzamide]"
4,> 10,"CCCOc1cc(C(=O)NC2CCN(C)CC2)ccc1Nc1ncc2c(n1)N(C1CCCC1)CC(C)(C)C(=O)N2C [Compound 124, 4-(9-cyclopentyl-5,7,7-trimethyl-6-oxo-6,7,8,9-tetrahydro-5H-pyrimido[4,5-b][1,4]diazepin-2-ylamino)-N-(1-methylpiperidin-4-yl)-3-propoxybenzamide]"
5,3.16 to 10,"COc1cc(C(=O)NC2CCN(C)CC2)ccc1Nc1ncc2c(n1)N(C1CCC1)CC(C)(C)C(=O)N2C [Compound 153, 4-(9-cyclobutyl-5,7,7-trimethyl-6-oxo-6,7,8,9-tetrahydro-5H-pyrimido[4,5-b][1,4]diazepin-2-ylamino)-3-methoxy-N-(1-methylpiperidin-4-yl)benzamide]"
6,> 10,"COc1cc(C(=O)N[C@H]2CCCNC2)ccc1Nc1ncc2c(n1)N(C1CCCC1)CCC(=O)N2C [Compound 50, (S)-4-(9-cyclopentyl-5-methyl-6-oxo-6,7,8,9-tetrahydro-5H-pyrimido[4,5-b][1,4]diazepin-2-ylamino)-3-methoxy-N-(piperidin-3-yl)benzamide]"
7,1 to 2.51,"C=CC[C@H]1CN(C2CCCC2)c2nc(Nc3ccc(C(=O)N[C@@H]4CCCNC4)cc3OC)ncc2N(C)C1=O [Compound 200, 4-((S)-7-allyl-9-cyclopentyl-5-methyl-6-oxo-6,7,8,9-tetrahydro-5H-pyrimido[4,5-b][1,4]diazepin-2-ylamino)-3-methoxy-N-((R)-piperidin-3-yl)benzamide]"
8,> 10,COc1cc(C(=O)NCC2CCN(C)CC2)ccc1Nc1ncc2c(n1)N(C1CCCC1)CC(C)(C)C(=O)N2C [Compound 88]
9,< 1,"COc1cc(C(=O)N[C@H]2CCCN(C)C2)ccc1Nc1ncc2c(n1)N(C1CCCC1)CC(C)(C)C(=O)N2C [Compound 99, (S)-4-(9-cyclopentyl-5,7,7-trimethyl-6-oxo-6,7,8,9-tetrahydro-5H-pyrimido[4,5-b][1,4]diazepin-2-ylamino)-3-methoxy-N-(1-methylpiperidin-3-yl)benzamide]"
10,3.16 to 10,"C=CC1(C)CN(C2CCCC2)c2nc(Nc3ccc(C(=O)NC4CN(C)C4)cc3OC)ncc2N(C)C1=O (stereo not drawn) [Compound 247, 4-(9-cyclopentyl-5,7-dimethyl-6-oxo-7-vinyl-6,7,8,9-tetrahydro-5H-pyrimido[4,5-b][1,4]diazepin-2-ylamino)-3-methoxy-N-(1-methylazetidin-3-yl)benzamide]"
11,> 10,"COc1cc(C(=O)N[C@@H]2CCNC2)ccc1Nc1ncc2c(n1)N(C1CCCC1)CCC(=O)N2C [Compound 41, (R)-4-(9-cyclopentyl-5-methyl-6-oxo-6,7,8,9-tetrahydro-5H-pyrimido[4,5-b][1,4]diazepin-2-ylamino)-3-methoxy-N-(pyrrolidin-3-yl)benzamide]"
12,1 to 2.51,"COc1cc(C(=O)N[C@H]2CCCNC2)ccc1Nc1ncc2c(n1)N(C1CCCCC1)CC1(CC1)C(=O)N2C [Compound 174, (S)-4-(9′-cyclohexyl-5′-methyl-6′-oxo-5′,6′,8′,9′-tetrahydrospiro[cyclopropane-1,7′-pyrimido[4,5-b][1,4]diazepine]-2′-ylamino)-3-methoxy-N-(piperidin-3-yl)benzamide]"
13,3.16 to 10,"COc1cc(C(=O)N[C@@H]2CCCNC2)ccc1Nc1ncc2c(n1)N(C1CCCC1)CC(C)(C)C(=O)N2C [Compound 100, (R)-4-(9-cyclopentyl-5,7,7-trimethyl-6-oxo-6,7,8,9-tetrahydro-5H-pyrimido[4,5-b][1,4]diazepin-2-ylamino)-3-methoxy-N-(piperidin-3-yl)benzamide]"
